{"source": "patent US10093983B2", "about": "(priority 2011, dated 2018)", "origin": "cited, not measured here", "target": "T1, D351Y or D351E mutant ESR1 (Homo sapiens, UniProt P03372, D351Y)", "T1 sequence (P03372 1-595 D351Y)": "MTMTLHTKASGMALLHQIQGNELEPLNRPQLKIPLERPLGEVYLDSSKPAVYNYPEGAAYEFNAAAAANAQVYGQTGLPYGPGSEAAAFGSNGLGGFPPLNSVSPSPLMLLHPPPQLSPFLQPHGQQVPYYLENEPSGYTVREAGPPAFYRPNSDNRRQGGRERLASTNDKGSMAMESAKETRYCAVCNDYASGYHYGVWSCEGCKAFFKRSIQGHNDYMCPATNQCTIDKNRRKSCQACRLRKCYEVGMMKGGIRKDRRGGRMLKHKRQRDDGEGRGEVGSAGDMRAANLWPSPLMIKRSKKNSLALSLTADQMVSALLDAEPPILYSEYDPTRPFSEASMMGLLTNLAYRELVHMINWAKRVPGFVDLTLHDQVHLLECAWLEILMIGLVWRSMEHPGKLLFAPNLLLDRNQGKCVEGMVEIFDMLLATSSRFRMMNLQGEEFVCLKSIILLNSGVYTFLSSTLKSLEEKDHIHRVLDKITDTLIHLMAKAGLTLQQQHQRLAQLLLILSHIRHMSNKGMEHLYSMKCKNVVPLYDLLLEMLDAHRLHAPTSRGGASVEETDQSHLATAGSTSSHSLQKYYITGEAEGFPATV", "data": [{"smiles": "C[C@]12CC[C@@H]3c4ccc(O)cc4C[C@@H](CCCCCCCCC[S+]([O-])CCCC(F)(F)C(F)(F)F)[C@H]3[C@@H]1CC[C@@H]2O", "note": "(stereo partly shown) [fulvestrant]", "values": [{"measurement": "effects of the antiestrogen upon mutating D351 to tyrosine", "result": "unaffected"}]}]}
